Results published in US8629272B2, “Tricyclic pyrimidine derivatives as wnt antagonists” (Deutsches Krebsforschungszentrum, priority 2009, dated 2014).

Key:
Type in all cases: cell-based
Wnt signalling pathway = assay: Wnt-sensitive reporter gene assay (6xTCF-luciferase, pTOP-FLASH) in Hek293T cells; design: Normalized Wnt pathway (inhibitory) activity: scale not given here
Method: To screen for small-molecule modulators of the Wnt signalling pathway, a reporter gene based assay describing the modulation of the TCF4 transcription factor was used. More specifically 4000 Hek293T cells were seeded into 384 high density plates. 24 h after seeding a Wnt-sensitive reporter (6×TCF-luciferase (Firefly) (pTOP-FLASH; “Armadillo co activates transcription driven by the product of the drosophila segment polarity gene dTCF”, Cell, 1997, 88(6), pages 789-799) and constitutively expressed control reporter (Renilla luciferase pCMV-RL) were transfected into Hek293T. Wnt signaling was stimulated by cotransfecting mouse Wnt1, mouse Frizzled 8 and human LRP6 according to “Casein kinase 1 gamma couples Wnt receptor activation to cytoplasmic signal transduction”, Nature, 2005, 438 (7069), pages 867-872. 24 h after pathway stimulation compounds were added at a concentration of 10 microM and allowed to incubate for 24 h. For the evaluation of the IC50 the compound was applied in increasing concentrations yielding final concentrations per well of 5 nM-100 microM.

human fibroblasts HS-68 = assay: Cell line specific cytotoxicity, count of Hoechst labeled nuclei, normal cells HS68
Method: For examination of cell line-specific cytotoxicity, compounds were applied to human colorectal cancer cells (HCT116, denoted (1); SW480, denoted (2); Dld-1, denoted (3)) and human fibroblasts (HFF-1, denoted (4); HS-68, denoted (5)), cultured in Mc Coy's (1) and Dulbecco's Modified Eagles Medium (2-5), supplemented with 10% ((1)-(3)) and 20% ((4), (5)) fetal calf serum and 1% penicillin/streptomycin. Cells were grown in T75 flasks at 37° C., 5% CO2 and trypsinized when 60-80% confluent by adding 2 ml of 0.25% Trypsin-EDTA solution. Cells were then re-suspended into culture medium and approx. 750 cells, suspended in 45 microl medium, were plated into each well of a black 384-well plate for fluorescence imaging experiments. […] Compound incubation was terminated by (a) fixation and (b) permeabilisation of cells, followed by (c) fluorescence labeling of cell nuclei for cytometric quantification or by immunocytochemistry for microscopic evaluation of cell morphology. The three steps were performed by replacing the solution of the previous step in each well of a 384-well plate by (a) 30 microl PBS (phosphate buffered saline) containing 5% PFA (paraformaldehyde), (b) 30 microl PBS containing 0.2% TritonX-100 and (c) 10 microl PBS containing Hoechst-33342 for cytometry or Hoechst-33342, FITC (fluorescein isothiocyanate-) labeled α-tubulin antibodies and TRITC-(tetramethylrhodamine isothiocyanate-) labeled phalloidin antibodies for microscopy. Solutions were incubated for 15 (a,b) and 30 min (c) in the dark at room temperature. Cells were washed twice between each step with 30 microl PBS. The assay system was miniaturized and adapted to automated workflow using liquid-handling robotics.
Cell line-specific cytotoxicity was quantified by counting the number of Hoechst labeled nuclei per well of a 384-well plate using a plate cytometer. Data obtained with the cytometer was analysed using standard data analysis software. […]

HepG2 = assay: Cytotoxicity in HepG2, CellTiterGlo; conditions: 24 h
Method: (§1) For examination of cytotoxicity in these cancer cell lines the commercial available CellTiterGlo® Reagent (Promega, USA) was used according to the manufactor. Compounds were applied to Hek293T (denoted (1)) or HepG2 (denoted (2)), cultured in Dulbecco's Modified Eagles Medium, supplemented with 10% fetal calf serum and 1% penicillin/streptomycin. Cells were grown in T75 flasks at 37° C., 5% CO2 and trypsinized when 60-80% confluent by adding 2 ml of 0.25% Trypsin-EDTA solution. Cells were then re-suspended into culture medium yielding approx. 4000 cells (1) or 4500 cells (2), suspended in 30 microl medium. 48 h after cell seeding, compounds were added to yield the desired final concentrations. 24 h after compound addition cytotoxicity was evaluated. For this purpose the media was removed and CellTiterGlo® was added according to the manufactors manual. In this assay the luciferase emission readout is directly correlated with the cellular amount of ATP, low luciferase emission thus is reflecting cytotoxicity of a compound. For the evaluation of the IC50 the compound was applied in increasing concentrations yielding final concentrations per well of 5 nM-100 microM.

Hek293T = assay: Cytotoxicity in Hek293T, CellTiterGlo; conditions: 24 h
Method: as §1

Structure (SMILES): CCOC(=O)C1=C(C)Nc2c(c3nnc(-c4cccc(OC)c4)n3c(=O)n2-c2ccccc2)C1c1ccccc1 (stereo not shown) [Example 15, 3-(3-Methoxy-phenyl)-7-methyl-4-oxo-5,9-diphenyl-4,5,6,9-tetrahydro-1,2,3a,5,6-pentaaza-cyclopenta[a]naphthalene-8-carboxylic acid ethyl ester]
- Normalized Wnt pathway (inhibitory) activity (Wnt signalling pathway; 0.005 microM): 0.9417
- Normalized Wnt pathway (inhibitory) activity (Wnt signalling pathway; 0.015 microM): 0.9230
- Normalized Wnt pathway (inhibitory) activity (Wnt signalling pathway; 0.137 microM): 1.0963
- Normalized Wnt pathway (inhibitory) activity (Wnt signalling pathway; 0.412 microM): 0.9830
- Normalized Wnt pathway (inhibitory) activity (Wnt signalling pathway; 1.235 microM): 0.8830
- Normalized Wnt pathway (inhibitory) activity (Wnt signalling pathway; 3.704 microM): 0.2973
- Normalized Wnt pathway (inhibitory) activity (Wnt signalling pathway; 11.111 microM): 0.2350
- Normalized Wnt pathway (inhibitory) activity (Wnt signalling pathway; 33.333 microM): 0.4200
- Normalized Wnt pathway (inhibitory) activity (Wnt signalling pathway; 100.000 microM): 0.4505
- IC50 (Wnt signalling pathway; Homo sapiens, HEK-293T, Hek293T, 24 h incubation, 5 nM-100 microM, read-out: IC50 of the Wnt signalling pathway inhibiting activity): 1340 nM
- Normalized cell count (HS68) (human fibroblasts HS-68; 0.005 micoM): 1
- Normalized cell count (HS68) (human fibroblasts HS-68; 0.015 micoM): 0.9166
- Normalized cell count (HS68) (human fibroblasts HS-68; 0.046 micoM): 1.018
- Normalized cell count (HS68) (human fibroblasts HS-68; 0.137 micoM): 0.9967
- Normalized cell count (HS68) (human fibroblasts HS-68; 0.412 micoM): 0.9484
- Normalized cell count (HS68) (human fibroblasts HS-68; 1.235 micoM): 0.961
- Normalized cell count (HS68) (human fibroblasts HS-68; 3.704 micoM): 0.9772
- Normalized cell count (HS68) (human fibroblasts HS-68; 11.111 micoM): 0.9757
- Normalized cell count (HS68) (human fibroblasts HS-68; 33.333 micoM): 0.9593
- Normalized cell count (HS68) (human fibroblasts HS-68; 100.000 micoM): 0.9099
- Normalized toxicity values (HepG2) (HepG2; 0.005 microM): 1.0700
- Normalized toxicity values (HepG2) (HepG2; 0.015 microM): 1.0465
- Normalized toxicity values (HepG2) (HepG2; 0.046 microM): 1.1350
- Normalized toxicity values (HepG2) (HepG2; 0.137 microM): 0.9913
- Normalized toxicity values (HepG2) (HepG2; 0.412 microM): 1.0390
- Normalized toxicity values (HepG2) (HepG2; 1.235 microM): 0.9878
- Normalized toxicity values (HepG2) (HepG2; 3.704 microM): 1.1575
- Normalized toxicity values (HepG2) (HepG2; 11.111 microM): 1.1825
- Normalized toxicity values (HepG2) (HepG2; 33.333 microM): 1.2000
- Normalized toxicity values (HepG2) (HepG2; 100.000 microM): 1.5075
- Normalized toxicity values (Hek293T) (Hek293T; 0.005 microM): 1.1205
- Normalized toxicity values (Hek293T) (Hek293T; 0.015 microM): 1.0500
- Normalized toxicity values (Hek293T) (Hek293T; 0.046 microM): 1.2200
- Normalized toxicity values (Hek293T) (Hek293T; 0.137 microM): 0.9283
- Normalized toxicity values (Hek293T) (Hek293T; 0.412 microM): 0.9603
- Normalized toxicity values (Hek293T) (Hek293T; 1.235 microM): 0.8915
- Normalized toxicity values (Hek293T) (Hek293T; 3.704 microM): 1.0113
- Normalized toxicity values (Hek293T) (Hek293T; 11.111 microM): 1.1550
- Normalized toxicity values (Hek293T) (Hek293T; 33.333 microM): 1.0515
- Normalized toxicity values (Hek293T) (Hek293T; 100.000 microM): 1.4175
